In patent publication US12338243B2, “P2X7 modulators” (JANSSEN PHARMACEUTICA NV, priority 2014, dated 2025) one finds IC50 data, which are given here for 20 compounds.

One experiment has as its target T1, rat P2X7 (Rattus norvegicus, UniProt Q64663).
T1 sequence (Q64663 1-595): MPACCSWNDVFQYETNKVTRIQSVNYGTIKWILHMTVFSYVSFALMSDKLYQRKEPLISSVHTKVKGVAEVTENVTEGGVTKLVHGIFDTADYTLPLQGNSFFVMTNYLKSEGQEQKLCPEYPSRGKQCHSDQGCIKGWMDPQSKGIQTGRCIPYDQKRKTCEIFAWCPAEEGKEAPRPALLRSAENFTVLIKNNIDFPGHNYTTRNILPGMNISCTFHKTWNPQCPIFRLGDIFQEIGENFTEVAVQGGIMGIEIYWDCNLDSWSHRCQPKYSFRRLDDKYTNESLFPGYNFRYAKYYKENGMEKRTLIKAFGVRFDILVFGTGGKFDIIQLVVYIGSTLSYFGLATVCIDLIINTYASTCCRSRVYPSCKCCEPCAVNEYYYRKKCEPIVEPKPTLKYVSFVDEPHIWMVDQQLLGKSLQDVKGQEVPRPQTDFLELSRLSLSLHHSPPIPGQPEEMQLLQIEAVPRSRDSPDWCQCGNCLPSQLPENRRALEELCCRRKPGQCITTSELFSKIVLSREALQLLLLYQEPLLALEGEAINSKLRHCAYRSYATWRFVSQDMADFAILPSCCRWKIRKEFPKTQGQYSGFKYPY
Briefly: Ca2+ flux (FLIPR) in 1321N1 cells expressing recombinant rat P2X7 channel. To be noted: FLIPR (rat) IC50 (μM), 250 μM BzATP. (A change in cytosolic calcium serves as a functional read-out for many receptors and channels.)

A further experiment has as its target T2, P2X7 (Homo sapiens, UniProt Q99572).
T2 sequence (Q99572 1-595): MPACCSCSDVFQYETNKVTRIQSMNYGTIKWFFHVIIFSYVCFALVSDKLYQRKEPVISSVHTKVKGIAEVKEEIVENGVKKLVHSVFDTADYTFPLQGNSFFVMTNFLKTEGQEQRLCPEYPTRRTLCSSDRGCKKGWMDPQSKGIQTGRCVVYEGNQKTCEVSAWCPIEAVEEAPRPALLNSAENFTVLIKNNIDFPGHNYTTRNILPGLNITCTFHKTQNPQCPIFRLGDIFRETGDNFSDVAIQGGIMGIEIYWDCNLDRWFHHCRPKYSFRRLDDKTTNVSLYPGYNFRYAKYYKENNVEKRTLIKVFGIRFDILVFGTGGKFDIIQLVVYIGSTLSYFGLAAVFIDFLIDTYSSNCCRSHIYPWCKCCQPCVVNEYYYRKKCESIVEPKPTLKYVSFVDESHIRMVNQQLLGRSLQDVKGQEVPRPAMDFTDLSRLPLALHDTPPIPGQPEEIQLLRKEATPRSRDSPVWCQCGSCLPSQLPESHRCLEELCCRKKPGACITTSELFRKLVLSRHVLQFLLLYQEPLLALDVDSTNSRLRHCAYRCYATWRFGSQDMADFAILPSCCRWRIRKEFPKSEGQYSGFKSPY
Briefly: Ca2+ flux (FLIPR) in 1321N1 cells expressing recombinant human P2X7 channel. The format is cell-based. Set-up: expressed in transfected cells; host or cells: 1321N1 cells. The following applies: 250 μM BzATP. As for the experimental part: P2X7 Antagonism in Recombinant Human P2X7 Cells or Recombinant Rat P2X7 Cells: (a) Ca^2+ Flux and (b) Radioligand Binding
(a) Ca^2+ flux: 1321N1 cells expressing the recombinant human or rat P2X7 channel was cultured in HyQ DME/(HyClone/Dulbecco's Modified Eagle Medium) high glucose supplemented with 10% Fetal Bovine Serum (FBS) and appropriate selection marker. Cells were seeded at a density of 25000 cells/well (96-well clear bottom black walled plates) in 100 μl volume/well. On the day of the experiment, cell plates were washed with assay buffer, containing (in mM): 130 NaCl, 2 KCl, 1 CaCl2), 1 MgCl2, 10 HEPES, 5 glucose; pH 7.40 and 300 mOs. After the wash, cells were loaded with the Calcium-4 dye (Molecular Device) and incubated in the dark for 60 minutes. Test compounds were prepared at 250× the test concentration in neat DMSO. Intermediate 96-well compound plates were prepared by transferring 1.2 μL of the compound into 300 μL of assay buffer. A further 3× dilution occurred when transferring 50 μL/well of the compound plate to 100 μL/well in the cell plate. Cells were incubated with test compounds and dye for 30 minutes. […] The fluorescence change was measured 180 seconds after adding the agonist.

Some results are limits rather than exact numbers.

For orientation: IC50 means the point on the concentration scale where inhibition reaches its midpoint.

`CC1c2nnc(C3CCCCC3)n2CCN1C(=O)c1cccc(C(F)(F)F)c1Cl` (stereo not shown) [Example 61, (2-chloro-3-(trifluoromethyl)phenyl)(3-cyclohexyl-8-methyl-5,6-dihydro-[1,2,4]triazolo[4,3-a]pyrazin-7(8H)-yl)methanone]: the half-maximal inhibitory concentration (IC50) is > 10 µM at rat P2X7 and 0.34 µM on P2X7.
`CC1c2nnc(C3CC3)n2CCN1C(=O)c1cccc(C(F)(F)F)c1Cl` (stereo not shown) [Example 65, (2-chloro-3-(trifluoromethyl)phenyl)(3-cyclopropyl-8-methyl-5,6-dihydro-[1,2,4]triazolo[4,3-a]pyrazin-7(8H)-yl)methanone]: the half-maximal inhibitory concentration (IC50) at rat P2X7 and on P2X7 was > 10 µM each time.
For the compound `COc1ccc(-c2nnc3n2C[C@H](C)N(C(=O)c2cccc(C(F)(F)F)c2Cl)C3)nc1` [Example 71], the 50% inhibitory concentration (IC50) at rat P2X7 was > 10 µM; at P2X7 it was 1.22 µM.
For the compound `O=C(c1cccc(C(F)(F)F)c1Cl)N1CCn2c(C3CC3)nnc2[C@H]1c1ccccc1` [Example 77, (R)-(2-chloro-3-(trifluoromethyl)phenyl)(3-cyclopropyl-8-phenyl-5,6-dihydro-[1,2,4]triazolo[4,3-a]pyrazin-7(8H)-yl)methanone], the IC50 at rat P2X7 was 1.11 µM; on P2X7, 0.589 µM.
On to `COc1cnc(-c2nnc3n2C[C@H](C)N(C(=O)c2cccc(C(F)(F)F)c2Cl)C3)nc1` [Example 78, (S)-(2-chloro-3-(trifluoromethyl)phenyl)(3-(5-methoxypyrimidin-2-yl)-6-methyl-5,6-dihydro-[1,2,4]triazolo[4,3-a]pyrazin-7(8H)-yl)methanone], for which the concentration for half-maximal inhibition (IC50) at rat P2X7 was 6.61 µM; on P2X7, 0.0143 µM.
`CC(C)(C)c1nnc2n1CCN(C(=O)c1cccc(C(F)(F)F)c1Cl)[C@H]2c1ccccc1` [Example 82, (S)-(3-(tert-butyl)-8-phenyl-5,6-dihydro-[1,2,4]triazolo[4,3-a]pyrazin-7(8H)-yl)(2-chloro-3-(trifluoromethyl)phenyl)methanone]: the figures for the concentration for half-maximal inhibition (IC50) at rat P2X7 and at P2X7 were 1.85 µM and 0.959 µM, respectively.
Consider `O=C(c1cccc(C(F)(F)F)c1Cl)N1CCn2c(-c3ccco3)nnc2[C@H]1c1ccccc1` [Example 83, (R)-(2-chloro-3-(trifluoromethyl)phenyl)(3-(furan-2-yl)-8-phenyl-5,6-dihydro-[1,2,4]triazolo[4,3-a]pyrazin-7(8H)-yl)methanone], for which the results for the IC50 on rat P2X7 and on P2X7 were 0.998 µM and 1.79 µM, respectively.
The corresponding values for `CCc1nnc2n1CCN(C(=O)c1cccc(C(F)(F)F)c1Cl)[C@H]2c1ccccc1` [Example 87, (S)-(2-chloro-3-(trifluoromethyl)phenyl)(3-ethyl-8-phenyl-5,6-dihydro-[1,2,4]triazolo[4,3-a]pyrazin-7(8H)-yl)methanone] are 9.93 µM and 3.81 µM.
Turning to `CC(C)c1nnc2n1CCN(C(=O)c1cccc(C(F)(F)F)c1Cl)[C@H]2c1ccccc1` [Example 89, (S)-(2-chloro-3-(trifluoromethyl)phenyl)(3-isopropyl-8-phenyl-5,6-dihydro-[1,2,4]triazolo[4,3-a]pyrazin-7(8H)-yl)methanone], the 50% inhibitory concentration (IC50) on rat P2X7 was > 10 µM; on P2X7, 0.98 µM.
As for `Cc1nnc2n1CCN(C(=O)c1cccc(C(F)(F)F)c1Cl)[C@H]2c1ccccn1` [Example 92, (S)-(2-chloro-3-(trifluoromethyl)phenyl)(3-methyl-8-(pyridin-2-yl)-5,6-dihydro-[1,2,4]triazolo[4,3-a]pyrazin-7(8H)-yl)methanone], the concentration for half-maximal inhibition (IC50) came out at 17.7 µM on rat P2X7 and 0.755 µM at P2X7.
Regarding `O=C(c1cccc(C(F)(F)F)c1Cl)N1CCn2c(C3CCC3)nnc2[C@@H]1c1ccccc1` [Example 94, (S)-(2-chloro-3-(trifluoromethyl)phenyl)(3-cyclobutyl-8-phenyl-5,6-dihydro-[1,2,4]triazolo[4,3-a]pyrazin-7(8H)-yl)methanone], the IC50 at rat P2X7 stood at 2.16 µM; on P2X7, 0.433 µM.
Take `O=C(c1cccc(C(F)(F)F)c1Cl)N1CCn2c(nnc2C(F)(F)F)[C@@H]1c1ccccc1` [Example 98, (S)-(2-chloro-3-(trifluoromethyl)phenyl)(8-phenyl-3-(trifluoromethyl)-5,6-dihydro-[1,2,4]triazolo[4,3-a]pyrazin-7(8H)-yl)methanone]: the concentration for half-maximal inhibition (IC50) at rat P2X7 is > 10 µM; on P2X7, 5.51 µM.
Take `O=C(c1cccc(Cl)c1Cl)N1CCn2c(nnc2C(F)(F)F)[C@@H]1c1ccccc1` [Example 103, (S)-(2,3-dichlorophenyl)(8-phenyl-3-(trifluoromethyl)-5,6-dihydro-[1,2,4]triazolo[4,3-a]pyrazin-7(8H)-yl)methanone]: the IC50 was > 10 µM on rat P2X7 and 1.4 µM on P2X7.
For `Cc1nnc2n1CCN(C(=O)c1cccc(Cl)c1Cl)[C@@H]2c1ccc(F)cc1` [Example 104, (R)-(2,3-dichlorophenyl)(8-(4-fluorophenyl)-3-methyl-5,6-dihydro-[1,2,4]triazolo[4,3-a]pyrazin-7(8H)-yl)methanone], the 50% inhibitory concentration (IC50) at rat P2X7 was > 10 µM; at P2X7, 4.48 µM.
In the case of `O=C(c1cccc(C(F)(F)F)c1Cl)N1CCn2c(C3CC3)nnc2[C@H]1c1ccc(F)cc1` [Example 106, (R)-(2-chloro-3-(trifluoromethyl)phenyl)(3-cyclopropyl-8-(4-fluorophenyl)-5,6-dihydro-[1,2,4]triazolo[4,3-a]pyrazin-7(8H)-yl)methanone], the 50% inhibitory concentration (IC50) on rat P2X7 and on P2X7 was > 10 µM throughout.
As to `O=C(c1cccc(C(F)(F)F)c1Cl)N1CCn2c(C(F)F)nnc2[C@@H]1c1ccccc1` [Example 109, (S)-(2-chloro-3-(trifluoromethyl)phenyl)(3-(difluoromethyl)-8-phenyl-5,6-dihydro-[1,2,4]triazolo[4,3-a]pyrazin-7(8H)-yl)methanone], the IC50 on rat P2X7 and at P2X7 was > 10 µM each time.
Turning to `O=C(c1cccc(Cl)c1Cl)N1CCn2c(C(F)F)nnc2[C@@H]1c1ccccc1` [Example 111, (S)-(2,3-dichlorophenyl)(3-(difluoromethyl)-8-phenyl-5,6-dihydro-[1,2,4]triazolo[4,3-a]pyrazin-7(8H)-yl)methanone], the IC50 at rat P2X7 and on P2X7 was > 10 µM each time.
On to `Cc1nnc2n1CCN(C(=O)c1cccc(Cl)c1Cl)[C@H]2c1ccccn1` [Example 113, (S)-(2,3-dichlorophenyl)(3-methyl-8-(pyridin-2-yl)-5,6-dihydro-[1,2,4]triazolo[4,3-a]pyrazin-7(8H)-yl)methanone], for which the half-maximal inhibitory concentration (IC50) on rat P2X7 is > 10 µM; at P2X7, 3.81 µM.
On to `Cc1nnc2n1CCN(C(=O)c1cccc(C(F)(F)F)c1Cl)[C@@H]2c1ccc(F)cc1` [Example 114, (R)-(2-chloro-3-(trifluoromethyl)phenyl)(8-(4-fluorophenyl)-3-methyl-5,6-dihydro-[1,2,4]triazolo[4,3-a]pyrazin-7(8H)-yl)methanone], for which the concentration for half-maximal inhibition (IC50) at rat P2X7 is > 10 µM; at P2X7 it was 4.08 µM.
`O=C(c1ccc(F)cc1Cl)N1CCn2c(nnc2C(F)(F)F)[C@H]1c1ccccc1` [Example 118, (R)-(2-chloro-4-fluorophenyl)(8-phenyl-3-(trifluoromethyl)-5,6-dihydro-[1,2,4]triazolo[4,3-a]pyrazin-7(8H)-yl)methanone]: the IC50 on rat P2X7 was 19.6 µM; at P2X7, 0.921 µM.
